Columns and labels:
[1] = target: T1, bisdioxopiperazine resistant Y165S mutant human topoisomerase II α (Homo sapiens, UniProt P11388, Y165S); format: biochemical; settings: FIG. 2-B
T1 construct: made in house; host or cells: yeast (over-expressing yeast cells)
Protocol: Topoisomerase II catalytic activity (DNA strand passage activity) was measured by using a filter-based kDNA decatenation assay as described in Jensen et al., 2002. Briefly, 200 ng ^3H labelled kDNA isolated from C. fasciculata was incubated with increasing concentrations of drug in 20 μL reaction buffer containing 10 mM TRIS-HCl pH 7.7, 50 mM NaCl, 50 mM KCl, 5 mM MgCl2, 1 mM EDTA, 15 μg/mL BSA and 1 mM ATP using two units of purified wild-type or Y165S mutant topoisomerase II α for 20 minutes at 37° C. (where one unit of activity is defined as the amount of enzyme required for complete decatenation in the absence of drug). After addition of 5× stop buffer (5% Sarkosyl, 0.0025% bromophenol blue, and 50% glycerol), unprocessed kDNA network and decatenated DNA mini-circles were separated by filtering, and the amount of unprocessed kDNA in each reaction was determined by scintillation counting.
Inhibition of human topoisomerase II α DNA strand passage activity was assessed by decatenation of tritium-labelled Crithidia fasiculata kDNA using a filter-based assay to separate unprocessed kDNA network from decatenated mini-circles.

topoisomerase II α [2] = target: T2, topoisomerase II α (Homo sapiens, UniProt P11388); experiment: Topoisomerase II ATPase assay (coupled, NADH oxidation); format: biochemical; parameters: made in house; host or cells: yeast (over-expressing yeast cells)
Protocol: The reaction was monitored spectrophotometrically at 340 nm using a Bio-Tek EL808 Ultra Micro plate Reader connected to a computer with KC4 Software installed (Bio-Tek Instruments, U.S.). The change in absorbance was related to ADP production using A340^1M=6220 cm^−1. […] The rate of ATP hydrolysis, V, was determined from the linear part of the curve.
The steady-state rate of ATP hydrolysis was determined using a coupled ATPase assay as described herein. […] Error bars represent SEM of two independent experiments each performed in duplicate.
The steady-state rate of ATP hydrolysis was determined as described in for FIG. 3 and as described herein. In this analysis, the rate of ATP hydrolysis in the absence of drug was set to one in all experiments. Error bars represent SEM of 2 or 3 independent experiments each preformed in duplicate.

topoisomerase II α [3] = target: T2, topoisomerase II α; experiment: Topoisomerase II retention on DNA/streptavidin beads (salt-stable complex); format: biochemical; parameters: made in house; host or cells: yeast (over-expressing yeast cells)
Protocol: An assay capable of measuring non-covalent complexes of topoisomerase II on closed circular DNA was performed as described in Morris et al., 2000, with modifications. When performing six reactions, 60 μL M280 streptavidin coated bead (Dynal A/S, Oslo, Norway) slurry corresponding to 600 μg beads was transferred to a 1.5 mL tube that was then placed in a Dynal MPC-E (magnetic particle concentrator) rack (Dynal A/S, Oslo, Norway) for 1 to 2 minutes until the beads had settled on the tube wall. The beads were then washed twice in the DNA binding solution supplied with the kilobase binding kit (Dynal A/S, Oslo, Norway) by repeating this step. Finally, the beads were re-suspended in 250 μL DNA binding solution. A preparation of biotin labelled plasmid DNA containing a 5-kb super coiled circular DNA molecule carrying 8 successive PNA (Peptide Nucleic Acid) linked biotin labels at one known position (pGeneGrip biotin blank vector, Gene Therapy Systems Inc., San Diego, Calif., USA) was made by mixing 220 μL distilled water and 30 μL biotinylated DNA. After mixing the beads and the DNA preparation, the sample was left overnight at room temperature under gentle agitation to assure optimal formation of the DynaBeads DNA complex. Next, the complex was washed twice in 480 μL wash buffer (10 mM TRIS-HCL, pH 7.5, 2 M NaCl, 1 mM EDTA), once in distilled water, and once in topoisomerase reaction buffer (10 mM TRIS-HCl, pH 7.9, 50 mM NaCl, 50 mM KCl, 5 mM MgCl2, 1 mM EDTA, […] BSA). Then, the beads were re-suspended in 600 μL topoisomerase II buffer and divided into 6 tubes. 100 μL reactions containing plasmid DNA coated DynaBeads, topoisomerase II buffer, 2 μg purified human topoisomerase […] and drugs were incubated for 30 minutes at 37° C. When included, ATP was present at 1 mM. […]
FIG. 7 describes the results of studies of the ability of NSC 35866 to stabilise a salt-stable complex of human topoisomerase II α on covalently closed circular DNA. Retention of salt-stable (to 2 M KCl) complexes of human topoisomerase II α on circular DNA attached to magnetic beads via biotin-streptavidin linkage was determined by eluting retained protein by adding running buffer containing 4% SDS followed by heating to 100° C. for 10 minutes. The amount of human topoisomerase II α protein retained was then determined by running the samples on 7% SDS-PAGE gels followed by straining with GelCode Blue Strain Reagent (Pierce, Rockford, Ill., USA): Lane 1, no drug; Lane 2, 200 μM ICRF-187; Lane 3, 30 μM NSC 35866; Lane 4, 100 μM NSC 35866; Lane 5, 300 μM NSC 35866; Lane 6, 1000 μM NSC 35866; Lane K, 2 μg human topoisomerase II α. […]

topoisomerase II α [4] = target: T2, topoisomerase II α; experiment: Band depletion assay (extractable topoisomerase II α, western blot); format: cell-based; parameters: OC—NYH cells were exposed to increasing concentrations of NSC 35866 for one hour and total proteins were extracted at 0.3 M NaCl; endogenous in cells; host or cells: human small cell lung cancer OC-NYH cells; settings: 200 μM, OC—NYH cells, one hour
Protocol: Band depletion assay was performed essentially as described in Sehested et al., 1998. The amount of extractable topoisomerase II α was detected by the ECL detection method (Amersham, Buckinghamshire, United Kingdom). OC—NYH cells were exposed to increasing concentrations of NSC 35866 for one hour and total proteins were extracted at 0.3 M NaCl. For detection of topoisomerase II α, a polyclonal primary antibody (Bio Trend, Cologne, Germany) was used. Horseradish peroxidase linked anti-rabbit antibody (Amersham, Buckinghamshire, United Kingdom) was used as secondary antibody.
FIG. 10 describes the results of studies of the ability of NSC 35866 to trap human topoisomerase II α as a non-extractable complex on DNA in a dose dependent manner. The ability of NSC 35866 to stabilise topoisomerase II α as a non-extractable complex on DNA in human SCLC OC—NYH cells was assessed using the band depletion assay as described herein. The amounts of topoisomerase II α was visualised by western blotting using a topoisomerase II α specific primary antibody: Lane 1, no drug; Lane 2, 200 μM ICRF-187; Lane 3, 200 μM NSC 35866; Lane 4, 500 μM NSC 35866; Lane 5, 1000 μM NSC 35866. Band depletion of the topoisomerase II α isoform caused by NSC 35866 was detected in two independent experiments.

T2 sequence (P11388 whole entry): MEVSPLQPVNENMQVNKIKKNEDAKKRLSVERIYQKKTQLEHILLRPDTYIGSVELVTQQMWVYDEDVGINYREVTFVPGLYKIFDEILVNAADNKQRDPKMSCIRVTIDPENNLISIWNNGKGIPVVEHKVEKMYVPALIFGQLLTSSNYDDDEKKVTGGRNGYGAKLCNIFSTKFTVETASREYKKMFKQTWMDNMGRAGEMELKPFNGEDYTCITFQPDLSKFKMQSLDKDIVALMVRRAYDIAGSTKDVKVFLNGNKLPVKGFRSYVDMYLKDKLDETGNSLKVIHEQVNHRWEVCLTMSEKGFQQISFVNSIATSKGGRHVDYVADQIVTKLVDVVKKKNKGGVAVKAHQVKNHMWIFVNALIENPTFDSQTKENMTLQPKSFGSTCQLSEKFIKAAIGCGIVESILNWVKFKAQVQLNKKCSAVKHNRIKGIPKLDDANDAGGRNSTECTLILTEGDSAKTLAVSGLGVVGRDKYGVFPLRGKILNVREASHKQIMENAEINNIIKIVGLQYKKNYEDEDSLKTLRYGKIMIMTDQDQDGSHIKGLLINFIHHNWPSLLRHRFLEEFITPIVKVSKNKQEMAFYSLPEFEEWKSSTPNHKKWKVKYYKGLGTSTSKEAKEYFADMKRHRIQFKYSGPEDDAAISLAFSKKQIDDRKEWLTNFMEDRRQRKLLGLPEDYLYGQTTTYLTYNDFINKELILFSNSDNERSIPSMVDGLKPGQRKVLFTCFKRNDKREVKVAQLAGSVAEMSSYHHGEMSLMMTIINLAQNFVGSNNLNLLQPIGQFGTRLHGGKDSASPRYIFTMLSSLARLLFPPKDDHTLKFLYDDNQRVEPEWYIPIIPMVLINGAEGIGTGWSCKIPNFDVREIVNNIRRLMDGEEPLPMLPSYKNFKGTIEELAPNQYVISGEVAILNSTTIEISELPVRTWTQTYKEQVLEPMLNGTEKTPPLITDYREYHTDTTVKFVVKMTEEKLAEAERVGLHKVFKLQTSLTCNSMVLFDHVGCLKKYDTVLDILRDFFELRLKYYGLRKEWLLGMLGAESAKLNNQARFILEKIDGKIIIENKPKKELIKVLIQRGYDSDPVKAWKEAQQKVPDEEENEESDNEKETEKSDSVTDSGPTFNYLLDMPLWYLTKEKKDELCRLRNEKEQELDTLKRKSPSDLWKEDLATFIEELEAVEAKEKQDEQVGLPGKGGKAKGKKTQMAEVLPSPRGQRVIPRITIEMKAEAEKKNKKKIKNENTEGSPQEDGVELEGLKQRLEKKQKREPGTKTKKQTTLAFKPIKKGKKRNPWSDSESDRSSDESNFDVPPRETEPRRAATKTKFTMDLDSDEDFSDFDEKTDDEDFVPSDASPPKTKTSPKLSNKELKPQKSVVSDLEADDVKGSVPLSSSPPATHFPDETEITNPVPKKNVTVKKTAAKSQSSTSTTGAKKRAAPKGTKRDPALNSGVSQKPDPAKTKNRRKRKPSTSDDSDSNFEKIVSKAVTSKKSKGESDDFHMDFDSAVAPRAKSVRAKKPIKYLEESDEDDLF
T1 sequence (P11388 whole entry Y165S): as the sequence (P11388 whole entry) above, with Y165S counted along it

For C[C@@H](CN1CC(=O)NC(=O)C1)N1CC(=O)NC(=O)C1 [ICRF-187, (+)-1,2-bis(3,5-dioxopiperazinyl-1-yl)propane, reference compound], the “inhibition of catalytic activity of the Y165S protein, in words” value [1] was “incapable of inhibiting the catalytic activity of the Y165S protein”, the “ATPase activity relative to that seen in the absence of drug” value (topoisomerase II α [2]; 100 μM, in the absence of DNA) was 75% and the IC50 (topoisomerase II α [2]; in the presence of DNA (DNA-stimulated), read-out: IC50, inhibition of ATPase activity) was 1 µM. The “retention of topoisomerase II on DNA beads after 2 M KCl wash, in words” value (topoisomerase II α [3]; 200 μM, with ATP) was “strongly induced the retention of topoisomerase II to the beads”, the “retention of topoisomerase II on DNA beads, in words” value (topoisomerase II α [3]; in the absence of ATP) was “strongly depended on ATP” and the “effect on amount of extractable topoisomerase II α, in words” value (topoisomerase II α [4]) was “clearly reduced”.

Source: US20090209535A1, “6-ETHER/THIOETHER-PURINES AS TOPOISOMERASE II CATALYTIC INHIBITORS AND THEIR USE IN THERAPY” (TOPOTARGET A/S, priority 2005, published 2009)
